These results are taken from patent US12453725B2, “Treatment of inflammatory disease” (Celleron Therapeutics Limited, priority 2019, dated 2025).

Series [1] has as its system colon26 tumours. The series is described as follows: Immunohistochemistry of colon26 tumour sections. The series is classed as in vivo, Balb/c mice. The protocol: Tumours were harvested, embedded in paraffin blocks and cut into 5 μm sections. Antigen retrieval was achieved by incubating in sodium citrate. Sections were incubated with primary antibodies: anti-H3Ack9 (ab10812, abcam), anti-CD8 (ab203035, abcam), anti-CD4 (ab183685, abcam), anti-CD68 (GR300628, abcam), anti-CD163 (GR3232711, abcam and, anti-FoxP3 (14208S, New England Biolabs) and further stained with anti-rabbit secondary antibody (VECTASTAIN Elite ABC HRP Kit, Vector Laboratories Inc, USA) according to the manufacturer protocol. Signal was detected by DAB (3, 3-diaminobenzidine, Vector Laboratories Inc, USA) and sections were counterstained with haematoxylin (Hematoxylin solution Mayer's; pH 2.4, Merck Group, Germany). Pictures were taken using Leica DM2500 optical microscope (Leica Microsystems, Germany) and the signal was semi-quantified by means of ImageJ Fiji software (National Institutes of Health, USA, doi:10.1038/nmeth.2019).

The test system of series [2] is colon26 tumours. The series is described as follows: RNAseq and qPCR of colon26 tumours. The series is classed as in vivo, Balb/c mice. As for the experimental part: (§1) To assess gene expression in tumours that were growing in vivo, we evaluated the effect of CXD101 in the syngeneic colon26 colon carcinoma model in tumours grown subcutaneously in Balb/c mice, with CXD101 given orally for two 5-day consecutive periods and performed RNAseq on RNA purified from the tumours. Formalin-fixed paraffin-embedded samples were also prepared to assess by immunohistochemistry (IHC) the tumour micro-environment.
The effect was dose-dependent, as more tumour-inhibition occurred with a higher dose of CXD101 (50 mg/kg compared to 15 mg/kg). […] We performed RNA seq on polyA-enriched RNA prepared from the tumours. In a similar way to the analysis of colon26 in vitro, the RNAseq data was aligned to the reference M. musculus genome (mm10) with STAR aligner and analysed for differential expression. […] We then assessed whether the same genes identified in the in vitro treated colon26 cells were similarly regulated in vivo.

Series [3] has as its system mouse colorectal colon26 cells. The series is described as follows: Proliferation of colon26 cells. The series is classed as cell-based. The settings on record: dose- and time-dependent. The protocol: Three human colorectal adenocarcinoma cell lines: SW620 (ATCC® CCL-227™), HCT-15 (ATCC® CCL-225™), LoVo (ATCC® CCL-229™), and one mouse colon carcinoma cell line: CT26 (ATCC® CRL-2638™) were obtained from ATCC. Human cell lines were cultured in DMEM (Lonza Group, Switzerland), while CT26 in RPMI (Biowest, France). The media were supplemented with 10% FBS and 1% penicillin-streptomycin (Lonza Group, Switzerland). Cells were cultured under standard conditions.
In order to assess the cytotoxicity of CXD101, cells were seeded onto 96-well plates overnight and the next day were dosed with CXD101 and incubated for 72 h or 120 h. Next, 100 μl of Thiazolyl Blue Tetrazolium Bromide (MTT, Sigma-Aldrich, USA) was added into a well (final concentration […]) and incubated for 2 h at 37° C. After that medium was discarded and formazan crystals were dissolved in 100 μl DMSO (VWR International, USA) by shaking for 15 minutes. Absorbance was read by Omega FLUOstar plate reader (BMG Labtech Ltd, Germany) at the 584 nm wavelength. Data were analysed and IC50 doses calculated in GraphPad Prism (GraphPad Software, USA).

For series [4], the system named is H3 acetylation. The series is described as follows: H3 acetylation, colon26 cells. The series is classed as cell-based, mouse. The settings on record: colon26, dose-dependent. The protocol: Cell pellets were lysed in TNN buffer, for 30 minutes on ice and centrifuged for another 30 minutes at maximum speed at 4° C. Protein concentration was assessed by Bradford assay (Quick Start™ Bradford 1× Dye Reagent, Bio-Rad Laboratories, USA). After gel electrophoresis, proteins were transferred onto the PVDF membrane by means of Trans-Blot® Turbo™ Transfer System (Bio-Rad Laboratories, USA) and blocked by 1 h incubation in 5% skim milk (Merck Group, Germany) in PBST at RT. To confirm acetylation induced by CXD101, membranes were incubated with anti-H3 (ab1791, abcam) antibody, anti-H3Ack9 (ab10812, abcam) in case of CT26 cells, and for SW620 with H3Ack14 antibody (#7627, Cell Signaling) overnight, at 4° C. Next, membranes were washed and treated with secondary antibody for 1 h at RT. Chemiluminescent signals were detected by LICOR C-Digit (LI-COR Biosciences, USA), and the data quantified using ImageJ software (National Institutes of Health, USA).

The test system of series [5] is colon26 tumours. The series is described as follows: Syngeneic colon26 colon carcinoma model. In kind it is in vivo. The protocol:
as §1
Syngeneic colorectal tumour xenograft Colon 26 model was induced in female BALB/c mice and MC38 model in C57BL/6 mice by subcutaneous injection of cell suspension into the flank following the anaesthetization by inhalation of isoflurane. Upon solid tumour formation Colon 26 animals were divided into six experimental groups treated respectively with: vehicle control (control), CXD101, anti-PD-1 mAb (BioXCell, USA), anti-CTLA4 mAb (BioXCell, USA), combination of CXD101 with anti-PD-1 antibody and combination of CXD101 with anti-CTLA4 antibody. MC38 animals were divided into four groups, without CTLA-4-based treatment. During the course of experiment animals were monitored twice daily and weighed three times a week. Mice in bad overall condition and/or tumour volume exceeding 1000 mm3 were euthanized. Tumour volume was calculated by two-dimensional measurement according to the formula: Tumour volume=(a×b^2)×0.5 in which a—represents the largest and, b—the perpendicular tumour diameter. The study was terminated on 36th day (Colon 26) or 48th day (MC38). All Colon 26 animal handling has been executed by Charles River Laboratories (Germany) personnel with compliance to all local and international laws and regulations. Experiments involving MC38 tumour model have been executed by Crown Bioscience San Diego (USA). CXD101 Clinical Trial in Combination with Nivolumab (CTL-101-023)

Where [6] appears, read: relative to untreated control animals.

Consider `Cc1nn(C)cc1CN1CCC(c2ccc(C(=O)Nc3ccccc3N)cc2)CC1` [CXD101, N-(2-aminophenyl)-4-(1-[(1,3-dimethyl-1H-pyrazol-4-yl)methyl]piperidin-4-yl)benzamide], for which, in series [1] (compared to untreated animals), the CD68 macrophages result is “reduced” and the CD163 macrophages result is “reduced”. Also, the “change in Tregs (FoxP3)” value in series [1] (mouse, in vivo) is given as “quite modest”. Besides, in series [1] (setting [6]), the “level of CD4 lymphocytes in tumour” value is “significant increase” and the “level of CD8 lymphocytes in tumour” value is recorded as “significant increase”. The “nuclear H3K9 acetylation” value in series [1] (treated vs untreated animals) is given as “increased levels”. In series [2] (colon26 tumours, qPCR), the “expression of Ccl20, Tnfsrf8” value is “no effects”; the “expression of H2-DMb1, H2-Eb1, H2-Dmb1, H2-T3, Ereg, Timp3, Ctla4, H2-D1, Ccl9, 1133” value is “increased expression”; the “expression of Rab3b” value is recorded as “decreased”. Moreover, in series [2] (log 2 FC >1 and FDR <1%), the “number of DEGs in tumours in vivo” value is on record as 1141. Further, in series [3], the “proliferation of colon26 cells” value is “inhibits proliferation”. The “H3 acetylation in cells” value in series [4] is reported as “increases the H3 acetylation”. Also, the “growth of colon26 tumours” value in series [5] (mono-therapy vs combined treatment study) was “inhibitory effect”. Moreover, the body weight result in series [5] (mono-therapy, 15 and 50 mg/kg) is on record as “minimal effect”. Further, the tumour growth entry in series [5] (mono-therapy, oral, two 5-day periods, 15 and 50 mg/kg, dose-dependent) is “significant inhibition of tumour growth”.
